The OligoGym collection
After the bases stand the sugars from the 5' end (letter, count) and the backbone: PS all phosphorothioate, else s phosphorothioate and o phosphodiester by linkage. Methylation of C is not given here. e = 2'-O-(2-methoxyethyl) (MOE); k = constrained ethyl (cEt); d = 2'-deoxy (DNA); m = 2'-O-methyl

What follows are sequences tested against HSD17B13. Conditions: ASO, HepaRG, 0.02 µM.

| Sequence | target mRNA inhibition [%] |
| --- | --- |
| ACCAATATGCTCTGTC (sugars k3 d10 k3, PS) | 19 |
| AGAGTTGCACCGTTTT (sugars k3 d9 k3 e1, PS) | 0 |
| TCAAAGTCAGTATCCC (sugars k3 d10 k3, PS) | 5 |

Same assay, conditions: ASO, HepaRG, 0.078 µM

| Sequence | target mRNA inhibition [%] |
| --- | --- |
| ACCAATATGCTCTGTC (sugars k3 d10 k3, PS) | 5 |
| AGAGTTGCACCGTTTT (sugars k3 d9 k3 e1, PS) | 0 |
| TCAAAGTCAGTATCCC (sugars k3 d10 k3, PS) | 19 |

Same assay, conditions: ASO, HepaRG, 0.313 µM

| Sequence | target mRNA inhibition [%] |
| --- | --- |
| ACCAATATGCTCTGTC (sugars k3 d10 k3, PS) | 41 |
| AGAGTTGCACCGTTTT (sugars k3 d9 k3 e1, PS) | 26 |
| TCAAAGTCAGTATCCC (sugars k3 d10 k3, PS) | 48 |

Same assay, conditions: ASO, HepaRG, 1 µM

| Sequence | target mRNA inhibition [%] |
| --- | --- |
| TTACAGCATCAAGACA (sugars kkdddddddddkekek, PS) | 22 |
| CAAGAGGATAGTCCAT (sugars kkdddddddddkekek, PS) | 22 |
| TCCATCATCGATGGAA (sugars k3 d10 k3, PS) | 31 |
| TTGGTAAGTATTCCAT (sugars kkdddddddddkekek, PS) | 13 |
| AACCTTTGTTGCCTGG (sugars k3 d10 k3, PS) | 36 |
| CCTGTGTTAGCTTTAA (sugars k3 d10 k3, PS) | 67 |
| ACCAATATGCTCTGTC (sugars k3 d10 k3, PS) | 67 |
| CCTCGATCCTATATAC (sugars k3 d10 k3, PS) | 31 |
| CCATCATCGATGGAAG (sugars k3 d10 k3, PS) | 8 |
| TAATCTTGTGCTTGGA (sugars k3 d10 k3, PS) | 54 |
| CGTCCAAAAGTGTCCT (sugars k3 d10 k3, PS) | 53 |
| GCGCTTATTAATATCC (sugars k3 d10 k3, PS) | 3 |
| AGAGTTGCACCGTTTT (sugars k3 d9 k3 e1, PS) | 78 |
| CACTAATTTAGTCAAC (sugars k3 d10 k3, PS) | 7 |
| GCATCTTAAGATACCC (sugars k3 d1 m1 d8 k3, PS) | 65 |
| GTTAGTATAGTTATCT (sugars kkdddddddddkekek, PS) | 51 |
| TGAGCCTAAAATTGTC (sugars k3 d10 k3, PS) | 30 |
| CTTCTGTAGGTTTTGC (sugars k3 d10 k3, PS) | 60 |
| GGAGUGCATCTTAAGA (sugars k3 d1 m1 d8 k3, PS) | 32 |
| GACTTCTTACGACTTC (sugars k3 d10 k3, PS) | 38 |
| AAAGTTAGTTGGGCGA (sugars k3 d10 k3, PS) | 26 |
| GAACTGTGTTGCTTGT (sugars k3 d10 k3, PS) | 77 |
| ACAACCCTTAACAAAC (sugars k3 d10 k3, PS) | 26 |
| GTTCAGTCCTTGTGTA (sugars k3 d10 k3, PS) | 38 |
| CCCTAGATTCTACACT (sugars k3 d10 k3, PS) | 22 |
| CCAACCCAAGCTACCT (sugars k3 d10 k3, PS) | 15 |
| CACAGAACCAATATGC (sugars k3 d10 k3, PS) | 54 |

| Sequence | target mRNA inhibition [%] |
| --- | --- |
| ATCTAGAATTAAGGGC (sugars k3 d10 k3, PS) | 41 |
| TCATTAGGAAAAGTGT (sugars k3 d10 k3, PS) | 16 |
| CCACTGGATGGATTTC (sugars k3 d10 k3, PS) | 68 |
| GTTTATCAGTAAAGTG (sugars k3 d10 k3, PS) | 64 |
| GGAATGCTACTTGAAC (sugars k3 d9 k3 e1, PS) | 68 |
| GGGTCCACTTTTGGTG (sugars k3 d10 k3, PS) | 13 |
| TTGAGTAGTGTAAGCT (sugars k3 d10 k3, PS) | 52 |
| TAAGCAGAATTGTGAA (sugars k3 d9 k3 e1, PS) | 52 |
| AGACATGAGGTTTTGA (sugars k3 d10 k3, PS) | 59 |
| TATAGCTAAGTATACT (sugars k3 d10 k3, PS) | 23 |
| ACTTCATAGTGGACTT (sugars k3 d10 k3, PS) | 61 |
| TGATATTCTGTGGCAT (sugars kkdddddddddkekek, PS) | 46 |
| CCAAGTAATTACTTCT (sugars k3 d10 k3, PS) | 68 |
| CTGTGTAAATAAGTTC (sugars k3 d10 k3, PS) | 38 |
| TAAACTAAAGTACTTG (sugars k3 d10 k3, PS) | 1 |
| TCGAATCATTAAGCTT (sugars k3 d10 k3, PS) | 34 |
| GCACCAACTATGTAAT (sugars k3 d10 k3, PS) | 53 |
| GTCATTTAGAATACGC (sugars k3 d10 k3, PS) | 46 |
| TTGATGTAGTGGGAGT (sugars k3 d10 k3, PS) | 68 |
| GATTTAGAGAGCGATA (sugars k3 d10 k3, PS) | 44 |
| TATTTCTTGCGAGAAA (sugars k3 d10 k3, PS) | 30 |
| ATTACAACCTGGTTTC (sugars k3 d10 k3, PS) | 50 |
| CTCAAAGTCAGTATCC (sugars k3 d10 k3, PS) | 70 |
| ACACTAATCTCAGTAC (sugars k3 d10 k3, PS) | 6 |
| CTGAAAAGCCCTATTC (sugars k3 d10 k3, PS) | 11 |
| CAGGTTGAGATAAAGC (sugars kkdddddddddkekek, PS) | 53 |
| AGGATAGTCCATGCAA (sugars kkdddddddddkekek, PS) | 46 |

| Sequence | target mRNA inhibition [%] |
| --- | --- |
| CCAACCAAACTTCCAG (sugars k3 d10 k3, PS) | 70 |
| ACAGTTCCTTTTCCTG (sugars k3 d10 k3, PS) | 58 |
| GAACAGTCTTAAACCT (sugars k3 d10 k3, PS) | 64 |
| TTTAGTTGGTAGCTTG (sugars k3 d10 k3, PS) | 63 |
| AAATTTGTGAACCTGC (sugars k3 d10 k3, PS) | 26 |
| GGTCAGTAGAGAGCAT (sugars k3 d10 k3, PS) | 79 |
| TATAATTACAACCTGG (sugars k3 d10 k3, PS) | 46 |
| TCTTAAGATACCCAGG (sugars k3 d1 m1 d8 k3, PS) | 51 |
| CATGATTAAGCAGAAT (sugars k3 d10 k3, PS) | 42 |
| AGGGTCCACTTTTGGT (sugars k3 d10 k3, PS) | 11 |
| GTCTACCTCTAAGTTA (sugars k3 d1 m1 d8 k3, PS) | 15 |
| GTATAGTTATCTTCTC (sugars k3 d10 k3, PS) | 59 |
| TAAACATAGGCTTAGT (sugars k3 d10 k3, PS) | 34 |
| GCCACAGATTTTCTCC (sugars k3 d10 k3, PS) | 49 |
| GTTGCACCGTTTTGGG (sugars kkdddddddddkekek, PS) | 35 |
| GGCTATAACTGGAAGG (sugars k3 d10 k3, PS) | 52 |
| TCAAAGTCAGTATCCC (sugars k3 d10 k3, PS) | 79 |
| CCTCTAAGTTAGCCCC (sugars k3 d10 k3, PS) | 97 |
| TCTGTGGCATGGCTAC (sugars k3 d10 k3, PS) | 67 |
| ATGCTACTTGAACAGT (sugars k3 d9 k3 e1, PS) | 50 |
| GGCAGTTGAAGTTGAT (sugars k3 d10 k3, PS) | 46 |
| TGTAGTGGGAGTCGGA (sugars k3 d9 k3 e1, PS) | 53 |
| AATACAGGATAGAGCA (sugars k3 d10 k3, PS) | 0 |
| TAAGCTGAGAGTTCTA (sugars k3 d1 m1 d8 k3, PS) | 27 |
| CGTATTTGAGATTCAC (sugars k3 d10 k3, PS) | 59 |
| TAAAAAATTGGTTTCG (sugars k3 d10 k3, PS) | 22 |
| TCTTAATTACATTCCC (sugars k3 d10 k3, PS) | 64 |

| Sequence | target mRNA inhibition [%] |
| --- | --- |
| AATTCTATAGCTAAGT (sugars k3 d10 k3, PS) | 9 |
| CGTTTGACTGCTGCTA (sugars k3 d10 k3, PS) | 58 |
| AAGATACCCAGGTTGC (sugars kkdddddddddkekek, PS) | 59 |
| CTACTTCACTATATTG (sugars k3 d10 k3, PS) | 33 |
| GTCTACCACATACGCA (sugars k3 d10 k3, PS) | 66 |
| AAAACTTCACCAACGA (sugars k3 d10 k3, PS) | 29 |
| TATTAAGACAGTTGAG (sugars k3 d10 k3, PS) | 44 |
| AGCAGAATTGTGAACG (sugars k3 d9 k3 e1, PS) | 56 |
| GAGTUGCACCGTTTTG (sugars k3 d1 m1 d8 k3, PS) | 63 |
| GAGTCATAATTTGCTT (sugars k3 d10 k3, PS) | 57 |
| ATAATCTTGTGCTTGG (sugars k3 d10 k3, PS) | 36 |
| ATATACTAGGATTAGA (sugars k3 d10 k3, PS) | 33 |
| AGAAUAGAGTTGCACC (sugars k3 d1 m1 d8 k3, PS) | 49 |
| ATGACATAGACATGTG (sugars k3 d10 k3, PS) | 23 |
| CTAATATTGAGGCACT (sugars k3 d10 k3, PS) | 51 |
| GTGTAAGCTGAGAGTT (sugars kkdddddddddkekek, PS) | 57 |
| ACTCGGGAAGTTTAGA (sugars k3 d10 k3, PS) | 26 |
| AACTTCATAGTGGACT (sugars kkdddddddddkekek, PS) | 68 |
| GTGCAAGATGATGACA (sugars k3 d10 k3, PS) | 19 |
| GACTGCTGCTAGTGCC (sugars k3 d9 k3 e1, PS) | 49 |
| CTTAGTGTAGAATTGT (sugars k3 d10 k3, PS) | 56 |
| ACCCTTAGGAAAGCTC (sugars k3 d10 k3, PS) | 52 |
| TTCTTACGACTTCATC (sugars k3 d10 k3, PS) | 47 |
| ACTGAAATTGATACAC (sugars k3 d10 k3, PS) | 49 |

Same assay, conditions: ASO, HepaRG, 1.25 µM

| Sequence | target mRNA inhibition [%] |
| --- | --- |
| ACCAATATGCTCTGTC (sugars k3 d10 k3, PS) | 78 |
| AGAGTTGCACCGTTTT (sugars k3 d9 k3 e1, PS) | 55 |
| TCAAAGTCAGTATCCC (sugars k3 d10 k3, PS) | 75 |

Same assay, conditions: ASO, HepaRG, 5 µM

| Sequence | target mRNA inhibition [%] |
| --- | --- |
| ACCAATATGCTCTGTC (sugars k3 d10 k3, PS) | 97 |
| AGAGTTGCACCGTTTT (sugars k3 d9 k3 e1, PS) | 45 |
| TCAAAGTCAGTATCCC (sugars k3 d10 k3, PS) | 88 |
